In general, EC50 refers to the concentration that produces a half-maximal response.

These results are taken from patent US20240067693A1, “POLYPEPTIDES AND USES THEREOF” (MEDIMMUNE LIMITED, priority 2020, published 2024).

Assay [1] concerns the target T1, rat amylin receptor (calcitonin receptor co-expressed with receptor activity modifying protein, RAMP3) (Rat AMYR3) (Rattus norvegicus, UniProt P32214+Q9JJ73).
T1 construct: expressed in transfected cells
T1 sequence (P32214 25-516): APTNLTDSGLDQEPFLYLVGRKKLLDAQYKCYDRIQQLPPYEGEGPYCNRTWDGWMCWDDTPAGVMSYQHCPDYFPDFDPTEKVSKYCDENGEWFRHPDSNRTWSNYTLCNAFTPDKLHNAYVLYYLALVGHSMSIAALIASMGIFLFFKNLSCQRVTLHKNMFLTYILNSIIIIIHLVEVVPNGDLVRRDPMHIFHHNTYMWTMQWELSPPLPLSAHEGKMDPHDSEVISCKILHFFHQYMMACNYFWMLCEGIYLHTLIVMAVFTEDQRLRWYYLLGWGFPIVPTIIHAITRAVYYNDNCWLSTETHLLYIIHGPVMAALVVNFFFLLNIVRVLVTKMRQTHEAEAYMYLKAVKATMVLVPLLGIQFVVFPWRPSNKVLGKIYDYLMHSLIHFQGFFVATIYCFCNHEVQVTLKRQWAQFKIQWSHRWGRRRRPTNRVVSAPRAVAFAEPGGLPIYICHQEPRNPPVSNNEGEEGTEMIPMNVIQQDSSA
T1 sequence (Q9JJ73 23-147 partner): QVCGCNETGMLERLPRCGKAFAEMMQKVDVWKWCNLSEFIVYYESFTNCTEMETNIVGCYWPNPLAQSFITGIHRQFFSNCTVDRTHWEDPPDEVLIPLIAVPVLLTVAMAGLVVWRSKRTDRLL
Description: cAMP production in HEK cells with stable recombinant expression of rat amylin receptor (Rat AMYR3). Type of assay: cell-based. The settings on record: assay buffer with 0.1% BSA. The method, boiled down: (§1)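 Thawed cells in HBSS/0.1% BSA/25 mM HEPES pH 7.4 with 0.5 mM IBMX were incubated with peptides 30 min at room temperature; cAMP read by HTRF. EC50 from 4-parameter fit of % activation relative to maximal amylin or calcitonin effect.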
Background: Cyclic AMP is a second messenger, typically raised through Gs and lowered through Gi signalling.

The target of assay [2] is T2, human amylin receptor (calcitonin receptor co-expressed with receptor activity modifying protein, RAMP3) (hAMYR3) (Homo sapiens, UniProt O60896+P30988).
T2 construct: expressed in transfected cells
T2 sequence (P30988 25-474): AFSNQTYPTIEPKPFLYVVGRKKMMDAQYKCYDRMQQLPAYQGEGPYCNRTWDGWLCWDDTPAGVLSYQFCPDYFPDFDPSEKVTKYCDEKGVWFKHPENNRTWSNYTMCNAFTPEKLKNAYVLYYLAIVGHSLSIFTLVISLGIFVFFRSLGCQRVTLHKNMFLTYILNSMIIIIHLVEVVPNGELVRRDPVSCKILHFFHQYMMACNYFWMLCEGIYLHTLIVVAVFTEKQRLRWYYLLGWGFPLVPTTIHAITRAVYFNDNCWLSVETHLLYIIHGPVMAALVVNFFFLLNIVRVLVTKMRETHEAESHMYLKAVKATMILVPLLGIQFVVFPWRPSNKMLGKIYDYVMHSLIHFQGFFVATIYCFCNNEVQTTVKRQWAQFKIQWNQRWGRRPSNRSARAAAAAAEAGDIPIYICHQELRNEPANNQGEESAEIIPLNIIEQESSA
T2 sequence (O60896 24-148 partner): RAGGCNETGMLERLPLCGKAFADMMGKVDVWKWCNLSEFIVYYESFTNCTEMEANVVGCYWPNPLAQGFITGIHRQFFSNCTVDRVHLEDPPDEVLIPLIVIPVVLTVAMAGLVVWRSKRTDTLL
Description: cAMP production in 1321N1 cells with stable recombinant expression of human amylin receptor (hAMYR3). To be noted: for Ratio (selectivity hAMYR vs hCTR, ratio of EC50 values at the two receptors): EC50 hCTR / EC50 hAMYR3; for EC50: cAMP, 1321N1 cells, assay buffer with 0.1% BSA, read-out: EC50 (pM) hAMYR3. It counts as cell-based. The gist of the method:
as §1

In assay [3] the target is T3, rat calcitonin receptor (rat CTR) (Rattus norvegicus, UniProt P32214).
T3 construct: expressed in transfected cells
T3 sequence (P32214 25-516): T1 sequence (P32214 25-516)
In words: cAMP production in HEK cells with stable recombinant expression of rat calcitonin receptor (rat CTR). The settings on record: assay buffer with 0.1% BSA. It counts as cell-based. The gist of the method: as §1

A further assay deals with lean rats. Description: Rat acute food intake study. It counts as in vivo. To be noted: lean male Sprague Dawley rats, 20 nmol/kg subcutaneously. The gist of the method:
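Male Sprague Dawley rats (n=7/group), fasted 6 h, received 20 nmol/kg test compound or 60 nmol/kg pramlintide subcutaneously 30 min before food return at dark onset. Food intake recorded automatically in home cages over 3 days, binned hourly and analysed as cumulative dark-period intake; body weight taken daily.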

Assay [4] concerns the target T4, human calcitonin receptor (hCTR) (Homo sapiens, UniProt P30988).
T4 construct: expressed in transfected cells
T4 sequence (P30988 25-474): T2 sequence (P30988 25-474)
Description: cAMP production in 1321N1 cells with stable recombinant expression of human calcitonin receptor (hCTR). Type of assay: cell-based. The settings on record: cAMP, 1321N1 cells, assay buffer with 0.1% BSA; read-out: EC50 (pM) hCTR. The method, boiled down: as §1

Numbered stars: 1 amine (or outer) side, 2 acyl side, 3 side chain; on linkers, the order of the positions; unused ones are H or OH. Bridge positions count the residues as written; N and C are the ends. Square brackets hold non-standard residues; d marks the D form. Side chains are listed from the residue outwards. Peptide text beside a SMILES is read from it. * marks the point of attachment. C18 diacid = O=C(O)CCCCCCCCCCCCCCCCC(=O)*; γGlu = O=C(O)[C@H](CCC(=O)[*:2])N[*:1]; Aib = CC(C)(N)C(=O)O

Consider `CC[C@H](C)[C@H](NC(=O)[C@@H]1CCCN1C(=O)CNC(=O)[C@H](Cc1ccccc1)NC(=O)[C@H](CC(N)=O)NC(=O)C(C)(C)NC(=O)[C@H](CO)NC(=O)[C@H](CO)NC(=O)[C@H](Cc1c[nH]cn1)NC(=O)[C@@H](NC(=O)[C@H](CC(C)C)NC(=O)[C@H](Cc1ccccc1)NC(=O)[C@H](CC(N)=O)NC(=O)[C@H](C)NC(=O)[C@H](CC(C)C)NC(=O)[C@H](CCCNC(=N)N)NC(=O)[C@H](CCC(N)=O)NC(=O)[C@@H](NC(=O)[C@H](C)NC(=O)[C@@H]1CSSC[C@H](NC(=O)[C@H](CCCCN)NC(=O)[C@@H](N)CCCCNC(=O)CC[C@H](NC(=O)CCCCCCCCCCCCCCCCC(=O)O)C(=O)O)C(=O)N[C@@H](CC(N)=O)C(=O)N[C@@H]([C@@H](C)O)C(=O)N[C@@H](C)C(=O)N[C@@H]([C@@H](C)O)C(=O)N1)[C@@H](C)O)C(C)C)C(=O)N[C@@H](CC(C)C)C(=O)N1CCC[C@H]1C(=O)N1CCC[C@H]1C(=O)N[C@H](C(=O)N[C@@H](Cc1c[nH]cn1)C(=O)N[C@H](C(=O)NCC(=O)N[C@@H](CO)C(=O)N[C@@H](CC(N)=O)C(=O)N[C@H](C(=O)N[C@@H](Cc1ccc(O)cc1)C(N)=O)[C@@H](C)O)C(C)C)[C@@H](C)O` [Peptide 40, K(γE-C18diacid)K[CNTATC]ATQRLANFLVHSS(Aib)NFGPILPPTHVGSNTY-amide] (H-K([γGlu-C18 diacid])KCNTATCATQRLANFLVHSS[Aib]NFGPILPPTHVGSNTY-NH2; disulfide 3-8), for which the concentration for a half-maximal effect (EC50) in assay [1] is 12 pM. For the same compound, in assay [2], the “Ratio (selectivity hAMYR vs hCTR, ratio of EC50 values at the two receptors)” value was found to be 15 and the EC50 stood at 228 pM. In assay [3], the EC50 was 782 pM. Further, in the assay with lean rats, the “Cummulative food intake (% vehicle treated intake) At 12 h” value is reported as 60.7 % vehicle treated intake, the “Cummulative food intake (% vehicle treated intake) At 24 h” value was found to be 51.8 % vehicle treated intake and the “Cummulative food intake (% vehicle treated intake) At 48 h” value turned out to be 72.4 % vehicle treated intake. Besides, the EC50 in assay [4] was 3330 pM.

Turning to `CC[C@H](C)[C@H](NC(=O)[C@@H]1CCCN1C(=O)CNC(=O)[C@H](Cc1ccccc1)NC(=O)[C@H](CC(N)=O)NC(=O)C(C)(C)NC(=O)[C@H](CO)NC(=O)[C@H](CO)NC(=O)[C@H](Cc1c[nH]cn1)NC(=O)[C@H](CCCNC(=N)N)NC(=O)[C@H](CC(C)C)NC(=O)[C@H](Cc1ccccc1)NC(=O)[C@H](CC(N)=O)NC(=O)[C@H](C)NC(=O)[C@H](CC(C)C)NC(=O)[C@H](CCCNC(=N)N)NC(=O)[C@H](CCC(N)=O)NC(=O)[C@@H](NC(=O)[C@H](C)NC(=O)[C@@H]1CSSC[C@H](NC(=O)[C@@H](N)CCCCNC(=O)CC[C@H](NC(=O)CCCCCCCCCCCCCCCCC(=O)O)C(=O)O)C(=O)N[C@@H](CC(N)=O)C(=O)N[C@@H]([C@@H](C)O)C(=O)N[C@@H](C)C(=O)N[C@@H]([C@@H](C)O)C(=O)N1)[C@@H](C)O)C(=O)N[C@@H](CC(C)C)C(=O)N1CCC[C@H]1C(=O)N1CCC[C@H]1C(=O)N[C@H](C(=O)N[C@@H](CCC(=O)O)C(=O)N[C@H](C(=O)NCC(=O)N[C@@H](CO)C(=O)N[C@@H](CC(N)=O)C(=O)N[C@H](C(=O)N[C@@H](Cc1ccc(O)cc1)C(N)=O)[C@@H](C)O)C(C)C)[C@@H](C)O` [Peptide 44, K(γE-C18diacid)[CNTATC]ATQRLANFLRHSS(Aib)NFGPILPPTEVGSNTY-amide] (H-K([γGlu-C18 diacid])CNTATCATQRLANFLRHSS[Aib]NFGPILPPTEVGSNTY-NH2; disulfide 2-7; N-terminus assumed), in assay [1], the EC50 was found to be 18.5 pM. In assay [2], the “Ratio (selectivity hAMYR vs hCTR, ratio of EC50 values at the two receptors)” value came out at 22 and the concentration giving a half-maximal response (EC50) is 284 pM. Further, the concentration for a half-maximal effect (EC50) in assay [3] was found to be 2240 pM. Further, in the assay on lean rats, the “Cummulative food intake (% vehicle treated intake) At 12 h” value is reported as 33.5 % vehicle treated intake, the “Cummulative food intake (% vehicle treated intake) At 24 h” value was determined as 39.2 % vehicle treated intake and the “Cummulative food intake (% vehicle treated intake) At 48 h” value turned out to be 60.7 % vehicle treated intake. In addition, the concentration giving a half-maximal response (EC50) in assay [4] was determined as 6260 pM.

Take `CC[C@H](C)[C@H](NC(=O)[C@@H]1CCCN1C(=O)CNC(=O)[C@H](Cc1ccccc1)NC(=O)[C@H](CC(N)=O)NC(=O)C(C)(C)NC(=O)[C@H](CO)NC(=O)[C@H](CO)NC(=O)[C@H](Cc1c[nH]cn1)NC(=O)[C@H](CCCNC(=N)N)NC(=O)[C@H](CC(C)C)NC(=O)[C@H](Cc1ccccc1)NC(=O)[C@H](CC(N)=O)NC(=O)[C@H](C)NC(=O)[C@H](CC(C)C)NC(=O)[C@H](CCCNC(=N)N)NC(=O)[C@H](CCC(N)=O)NC(=O)[C@@H](NC(=O)[C@H](C)NC(=O)[C@@H]1CSSC[C@H](NC(=O)[C@@H](N)CCCCNC(=O)CC[C@H](NC(=O)CCCCCCCCCCCCCCCCC(=O)O)C(=O)O)C(=O)N[C@@H](CC(N)=O)C(=O)N[C@@H]([C@@H](C)O)C(=O)N[C@@H](C)C(=O)N[C@@H]([C@@H](C)O)C(=O)N1)[C@@H](C)O)C(=O)N[C@@H](CC(C)C)C(=O)N1CCC[C@H]1C(=O)N1CCC[C@H]1C(=O)N[C@H](C(=O)N[C@@H](CC(N)=O)C(=O)N[C@H](C(=O)NCC(=O)N[C@@H](CO)C(=O)N[C@@H](CC(N)=O)C(=O)N[C@H](C(=O)N[C@@H](Cc1ccc(O)cc1)C(N)=O)[C@@H](C)O)C(C)C)[C@@H](C)O` [Peptide 48, K(γE-C18diacid)[CNTATC]ATQRLANFLRHSS(Aib)NFGPILPPTNVGSNTY-amide] (H-K([γGlu-C18 diacid])CNTATCATQRLANFLRHSS[Aib]NFGPILPPTNVGSNTY-NH2; disulfide 2-7; N-terminus assumed): in assay [1], the EC50 was 4.8 pM. Further, in assay [2], the “Ratio (selectivity hAMYR vs hCTR, ratio of EC50 values at the two receptors)” value is on record as 42 and the concentration for a half-maximal effect (EC50) was 126 pM. Further, the EC50 in assay [3] amounted to 2430 pM. Moreover, in the assay on lean rats, the “Cummulative food intake (% vehicle treated intake) At 12 h” value is reported as 27.5 % vehicle treated intake, the “Cummulative food intake (% vehicle treated intake) At 24 h” value stood at 32.6 % vehicle treated intake and the “Cummulative food intake (% vehicle treated intake) At 48 h” value is reported as 57.1 % vehicle treated intake. Further, in assay [4], the EC50 was 5270 pM.
